US8049034B2, “Biphenyl compound selective agonists of gamma RAR receptors” (Galderma Research & Development, priority 2005, dated 2011)

How the values were obtained:
Type in all cases: cell-based
RAR alpha = target: T1, RAR alpha (Homo sapiens, UniProt P10276); assay: Transactivation test (luciferase reporter, HeLa stable transfectants), RAR alpha; settings: apparent Kd from Schild regression, cross curves against reference antagonist, HeLa cells; read-out: RAR alpha Kdapp
T1 sequence (P10276 183-417 limits assumed): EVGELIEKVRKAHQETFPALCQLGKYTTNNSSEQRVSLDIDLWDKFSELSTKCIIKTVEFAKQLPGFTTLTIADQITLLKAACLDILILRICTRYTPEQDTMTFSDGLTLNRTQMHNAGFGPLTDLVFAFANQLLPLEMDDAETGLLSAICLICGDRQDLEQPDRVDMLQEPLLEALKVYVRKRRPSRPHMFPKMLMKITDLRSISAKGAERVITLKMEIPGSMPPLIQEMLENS
Experimental: (§1) The activation of the receptors by an agonist (activator) in HeLa cells results in the expression of a reporter gene, luciferase, which, in the presence of a substrate, generates light. It is thus possible to measure the activation of the receptors by quantifying the luminescence produced after incubation of the cells in the presence of a reference antagonist. The activating products displace the antagonist from its site, thus allowing activation of the receptor. The activity is measured by quantifying the increase in the light produced. This measurement makes it possible to determine the activator activity of the compound that can be used in the invention.
(§2) In this study, a constant which represents the affinity of the molecule for the receptor is determined. Since this value can fluctuate according to the basal activity and the expression of the receptor, it is designated apparent Kd (KdApp).
(§3) The test product is used at 10 concentrations and the reference antagonist at 7 concentrations. In each well (of a 96-well plate), the cells are in contact with one concentration of the test product and one concentration of the reference antagonist.
(§4) Measurements are also carried out for the total agonist control, otherwise known as 100% control (4-[2-(5,5,8,8-tetramethyl-5,6,7,8-tetrahydronaphthalen-2-yl)propenyl]benzoic acid), and the inverse agonist control, otherwise known as 0% control (4-{(E)-3-[4-(4-tert-butylphenyl)-5,5,8,8-tetramethyl-5,6,7,8-tetrahydronaphthalen-2-yl)]-3-oxopropenyl}benzoic acid).
(§5) In the case of an agonist, the AC50 is calculated by plotting the curve of the product at the concentration of the reference ligand giving 80% activation. The percentage activation which corresponds to the maximum level of activity obtained is also measured.
(§6) The HeLa cell lines used are stable transfectants containing the plasmids ERE-βGlob-Luc-SV-Neo (reporter gene) and RAR (α, β, γ) ER-DBO-puro. These cells are seeded into 96-well plates at a rate of 10 000 cells per well in 100 μl of DMEM medium without phenol red and supplemented with 10% defatted calf serum. The plates are then incubated at 37° C., 7% CO2 for 4 hours.
(§7) The various dilutions of the test product, of the reference ligand
(§8) (4-(5,5-dimethyl-8-p-tolyl-5,6-dihydronaphthalen-2-ylethynyl)benzoic acid), of the 100% control (100 nM 4-[2-(5,5,8,8-tetramethyl-5,6,7,8-tetrahydronaphthalen-2-yl)propenyl]benzoic acid) and of the 0% control (500 nM 4-{(E)-3-[4-(4-tert-butylphenyl)-5,5,8,8-tetramethyl-5,6,7,8-tetrahydronaphthalen-2-yl)]-3-oxopropenyl}benzoic acid) are added at a rate of 5 μl per well. The plates are then incubated for 18 hours at 37° C., 7% CO2.
(§9) The culture medium is removed by turning the plates over, and 100 μl of a 1:1 PBS (phosphate buffered solution)/luciferin mixture are added to each well. After 5 minutes, the plates are read using the luminescence reader.

RAR beta = target: T2, RAR beta (Homo sapiens, UniProt P10826); assay: Transactivation test (luciferase reporter, HeLa stable transfectants), RAR beta; settings: apparent Kd from Schild regression, cross curves against reference antagonist, HeLa cells; read-out: RAR beta Kdapp
T2 sequence (P10826 183-417 limits assumed): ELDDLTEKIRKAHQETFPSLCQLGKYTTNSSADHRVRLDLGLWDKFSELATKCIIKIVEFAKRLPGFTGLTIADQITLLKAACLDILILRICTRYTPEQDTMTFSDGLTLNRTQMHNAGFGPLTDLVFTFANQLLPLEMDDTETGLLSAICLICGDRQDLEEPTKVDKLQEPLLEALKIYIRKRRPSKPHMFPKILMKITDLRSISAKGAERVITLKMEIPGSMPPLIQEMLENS
Experimental: as §1, §2, §3, §4, §5, §6, §7, §8, §9

RAR gamma = target: T3, RAR gamma (Homo sapiens, UniProt P13631); assay: Transactivation test (luciferase reporter, HeLa stable transfectants), RAR gamma; settings: apparent Kd from Schild regression, cross curves against reference antagonist, HeLa cells; read-out: RAR gamma Kdapp
T3 construct: RAR gamma Kdapp
T3 sequence (P13631 185-419 limits assumed): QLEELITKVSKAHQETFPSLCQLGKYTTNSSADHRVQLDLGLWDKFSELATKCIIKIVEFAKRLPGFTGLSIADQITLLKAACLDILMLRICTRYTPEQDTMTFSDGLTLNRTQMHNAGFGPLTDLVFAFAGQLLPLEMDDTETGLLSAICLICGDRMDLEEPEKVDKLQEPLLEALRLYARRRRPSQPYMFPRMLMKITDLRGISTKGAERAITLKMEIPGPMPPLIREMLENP
Experimental: as §1, §2, §3, §4
In the case of an agonist, the AC50 is calculated by plotting the curve of the product at the concentration of the reference ligand giving 80% activation. The percentage activation which corresponds to the maximum level of activity obtained is also measured. […]
as §9

SMILES | Kd (RAR alpha) | Kd (RAR beta) | Kd (RAR gamma)
COc1cc(C(=O)O)ccc1-c1ccc(-c2ccccc2)c(-c2ccc3c(c2)C(C)(C)CCC3(C)C)c1 [Example 44, 2″-Methoxy-2′-(5,5,8,8-tetramethyl-5,6,7,8-tetrahydronaphthalen-2-yl)-[1,1′:4,1″]-tert-phenyl-4″-carboxylic acid] | 4 nM | 2 nM | 0.5 nM
CC1(C)CCC(C)(C)c2cc(-c3cc(-c4ccc(C(=O)O)cc4)ccc3-c3ccccc3)ccc21 [Example 14, 2′-(5,5,8,8-Tetramethyl-5,6,7,8-tetrahydronaphthalen-2-yl)-[1,1′:4′,1″]-tert-phenyl-4″-carboxylic acid] | 2 nM | 1 nM | –
CC1(C)CCC(C)(C)c2cc(-c3cc(-c4ccc(C(=O)O)c(O)c4)ccc3-c3ccccc3)ccc21 [Example 46, 3″-Hydroxy-2′-(5,5,8,8-tetramethyl-5,6,7,8-tetrahydronaphthalen-2-yl)-[1,1′:4,1″]-tert-phenyl-4″-carboxylic acid] | 2 nM | 1 nM | 0.25 nM

More lines, in order of falling Kd (RAR alpha), values ahead:

Kd (RAR alpha) | Kd (RAR beta) | Kd (RAR gamma) | SMILES
8 nM | 4 nM | – | CC1(C)CCC(C)(C)c2cc(-c3cc(-c4ccc(C(=O)O)cc4O)ccc3-c3ccccc3)ccc21 [Example 42, 2″-Hydroxy-2′-(5,5,8,8-tetramethyl-5,6,7,8-tetrahydronaphthalen-2-yl)-[1,1′:4,1″]-tert-phenyl-4″-carboxylic acid]
4 nM | 1 nM | – | CC1(C)CCC(C)(C)c2cc(-c3cc(-c4ccc(C(=O)O)cn4)ccc3-c3ccccc3)ccc21 [Example 47, 6-[2-(5,5,8,8-Tetramethyl-5,6,7,8-tetrahydronaphthalen-2-yl)biphenyl-4-yl]nicotinic acid]
2 nM | 1 nM | 0.25 nM | Cc1cc(-c2ccc(-c3ccccc3)c(-c3ccc4c(c3)C(C)(C)CCC4(C)C)c2)ccc1C(=O)O [Example 41, 3″-Methyl-2′-(5,5,8,8-tetramethyl-5,6,7,8-tetrahydronaphthalen-2-yl)-[1,1′:4,1″]-tert-phenyl-4″-carboxylic acid]
